Our source for the IC50 values is patent US20250179045A1, “LPAR1 ANTAGONISTS AND USES THEREOF” (Contineum Therapeutics, Inc., priority 2021, published 2025).

Read-outs that look alike come from different tables or passages of the source. Where only a bound is given, the exact number is not on record here.

The target of the experiment is human LPA1 (Homo sapiens, UniProt Q92633). Briefly: In vitro functional assay of lysophosphatidic acid receptor 1 activity (calcium flux). The format is cell-based. As to conditions: Fluo-4 NW calcium flux after lysophosphatidic acid (18:1) at EC80, compounds 100 pM to 10 μM. The essentials: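 B103 cells stably expressing human LPA1 plated onto compound for 24 h at 37 °C, loaded with Fluo-4 NW dye, re-exposed to compound (30 min 37 °C plus 30 min room temp).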
(A change in cytosolic calcium serves as a functional read-out for many receptors and channels.)

Where [1] appears, read: B103 cells stably expressing human LPA1, read-out: LPA1 IC50.

Chain of human LPA1 (Q92633 whole entry): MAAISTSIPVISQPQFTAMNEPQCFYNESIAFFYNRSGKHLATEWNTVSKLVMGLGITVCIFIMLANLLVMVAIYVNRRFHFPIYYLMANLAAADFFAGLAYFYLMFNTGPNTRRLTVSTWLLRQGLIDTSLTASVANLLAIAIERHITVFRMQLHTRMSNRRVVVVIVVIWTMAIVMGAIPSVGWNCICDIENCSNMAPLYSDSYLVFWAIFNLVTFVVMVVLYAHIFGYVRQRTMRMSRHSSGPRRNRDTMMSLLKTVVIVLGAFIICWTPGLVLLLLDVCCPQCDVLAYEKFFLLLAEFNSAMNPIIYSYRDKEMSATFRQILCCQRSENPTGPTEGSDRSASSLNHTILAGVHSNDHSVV

For the compound `Cc1ccc(NC(=O)C2(c3ccccc3C(C)C)CC(C(=O)O)C2)c(OC(F)F)n1` (stereo not drawn) [Example 65, 3-((2-(difluoromethoxy)-6-methylpyridin-3-yl)carbamoyl)-3-(2-isopropylphenyl)cyclobutane-1-carboxylic acid], the IC50 (commonly the midpoint of a concentration-inhibition curve) under setting [1] lay within 10 to 100 nM. Regarding `Cc1ccc(NC(=O)C2(c3ccccc3C(C)C)CC(C(=O)N(C)C)C2)c(OC(F)F)n1` (stereo not drawn) [Example 66, N^1-(2-(difluoromethoxy)-6-methylpyridin-3-yl)-1-(2-isopropylphenyl)-N^3,N^3-dimethylcyclobutane-1,3-dicarboxamide], under setting [1], the half-inhibitory concentration (IC50) fell in the range of 100 to 1000 nM.

Take `Cc1ccc(NC(=O)C2(c3ccccc3C(C)C)CC(CC(=O)N(C)C)C2)c(OC(F)F)n1` (stereo not drawn) [Example 67, N-(2-(difluoromethoxy)-6-methylpyridin-3-yl)-3-(2-(dimethylamino)-2-oxoethyl)-1-(2-isopropylphenyl)cyclobutane-1-carboxamide]: under setting [1], the IC50 lay within 100 to 1000 nM. Consider `CNS(=O)(=O)C1CC(C(=O)Nc2ccc(C)nc2OC(F)F)(c2ccccc2C(C)C)C1` (stereo not drawn) [Example 70, N-(2-(difluoromethoxy)-6-methylpyridin-3-yl)-1-(2-isopropylphenyl)-3-(N-methylsulfamoyl)cyclobutane-1-carboxamide], for which the 50% inhibitory concentration (IC50) under setting [1] lay in the range of 10 to 100 nM.

Turning to `Cc1ccc(NC(=O)C2(c3ccccc3C(C)C)CC(S(C)(=O)=O)C2)c(OC(F)F)n1` (stereo not drawn) [Example 71, N-(2-(difluoromethoxy)-6-methylpyridin-3-yl)-1-(2-isopropylphenyl)-3-(methylsulfonyl)cyclobutane-1-carboxamide], under setting [1], the IC50 is 100 to 1000 nM.

For `Cc1ccc(NC(=O)C2(c3ccccc3C(C)C)CC(Cn3ccnn3)C2)c(OC(F)F)n1` (stereo not drawn) [Example 72, 3-((1H-1,2,3-triazol-1-yl)methyl)-N-(2-(difluoromethoxy)-6-methylpyridin-3-yl)-1-(2-isopropylphenyl)cyclobutane-1-carboxamide], under setting [1], the IC50 is 10 to 100 nM. On to `Cc1ccc(NC(=O)C2(c3ccccc3C(C)C)CCC2)c(OC(F)F)n1` [Example 73, N-(2-(difluoromethoxy)-6-methylpyridin-3-yl)-1-(2-isopropylphenyl)cyclobutane-1-carboxamide], for which the half-maximal inhibitory concentration (IC50) under setting [1] is > 1000 nM. Same read-out and setting: next, `CC(=O)N1CC2(C1)CC(C(=O)Nc1ccc(C)nc1OC(F)F)(c1ccccc1C(C)C)C2` [Example 74, 2-acetyl-N-(2-(difluoromethoxy)-6-methylpyridin-3-yl)-6-(2-isopropylphenyl)-2-azaspiro[3.3]heptane-6-carboxamide]: > 1000 nM. Still for that read-out and setting: with `COc1ccc(NC(=O)C2(c3ccccc3C(C)C)CCC3(CC2)OCCO3)c(OC(F)F)n1` [Example 79, N-(2-(difluoromethoxy)-6-methoxypyridin-3-yl)-8-(2-isopropylphenyl)-1,4-dioxaspiro[4.5]decane-8-carboxamide] the figure was 100 to 1000 nM; with `COc1ccc(NC(=O)C2(c3ccccc3C(C)C)CCC(=O)CC2)c(OC(F)F)n1` [Example 80, N-(2-(difluoromethoxy)-6-methoxypyridin-3-yl)-1-(2-isopropylphenyl)-4-oxocyclohexane-1-carboxamide], 10 to 100 nM; with `C#CC1(O)CCC(C(=O)Nc2ccc(OC)nc2OC(F)F)(c2ccccc2C(C)C)CC1` (stereo not drawn) [Example 82, N-(2-(difluoromethoxy)-6-methoxypyridin-3-yl)-4-ethynyl-4-hydroxy-1-(2-isopropylphenyl)cyclohexane-1-carboxamide], < 10 nM. Take `COc1ccc(NC(=O)C2(c3ccccc3C(C)C)CCC(N=[N+]=[N-])CC2)c(OC(F)F)n1` (stereo not drawn) [Example 84, 4-azido-N-(2-(difluoromethoxy)-6-methoxypyridin-3-yl)-1-(2-isopropylphenyl)cyclohexane-1I-carboxamide]: the half-inhibitory concentration (IC50) under setting [1] lay within 10 to 100 nM. Still for that read-out and setting: next, `CC(C)c1ccccc1C1(C(=O)Nc2ccc(Br)cc2OC(F)F)CC(=O)N(C)C1` (stereo not drawn) [Example 87, N-(4-bromo-2-(difluoromethoxy)phenyl)-3-(2-isopropylphenyl)-1-methyl-5-oxopyrrolidine-3-carboxamide]: 10 to 100 nM; `CC(C)c1ccccc1C1(C(=O)Nc2ccc(F)cc2OC(F)F)CC(=O)N(C)C1` (stereo not drawn) [Example 88, N-(2-(difluoromethoxy)-4-fluorophenyl)-3-(2-isopropylphenyl)-1-methyl-5-oxopyrrolidine-3-carboxamide]: 100 to 1000 nM; `COc1ccc(NC(=O)C2(c3ccccc3C(C)C)CCC(S(N)(=O)=O)CC2)c(OC(F)F)n1` (stereo not drawn) [Example 97, N-(2-(difluoromethoxy)-6-methoxypyridin-3-yl)-1-(2-isopropylphenyl)-4-sulfamoylcyclohexane-1-carboxamide]: 100 to 1000 nM. On to `CNS(=O)(=O)C1CCC(C(=O)Nc2ccc(OC)nc2OC(F)F)(c2ccccc2C(C)C)CC1` (stereo not drawn) [Example 99, N-(2-(difluoromethoxy)-6-methoxypyridin-3-yl)-1-(2-isopropylphenyl)-4-(N-methylsulfamoyl)cyclohexane-1-carboxamide], for which the IC50 under setting [1] lay in the range of 100 to 1000 nM. Still for that read-out and setting: with `COc1ccc(NC(=O)C2(c3ccccc3C(C)C)CCC(S(C)(=O)=O)CC2)c(OC(F)F)n1` (stereo not drawn) [Example 100, N-(2-(difluoromethoxy)-6-methoxypyridin-3-yl)-1-(2-isopropylphenyl)-4-(methylsulfonyl)cyclohexane-1-carboxamide] the figure was 100 to 1000 nM; with `COc1cc(C)ccc1NC(=O)C1(c2ccccc2C(C)C)CNC(=O)C1` (stereo not drawn) [Example 101, 3-(2-isopropylphenyl)-N-(2-methoxy-4-methylphenyl)-5-oxopyrrolidine-3-carboxamide], 10 to 100 nM. The same measure, in the same setting: with `COc1ccc(NC(=O)C2(c3ccccc3C(C)C)CNC(=O)C2)c(OC)n1` (stereo not drawn) [Example 103, N-(2,6-dimethoxypyridin-3-yl)-3-(2-isopropylphenyl)-5-oxopyrrolidine-3-carboxamide] the figure was 100 to 1000 nM; with `COc1cc(Br)ccc1NC(=O)C1(c2ccccc2C(C)C)CNC(=O)C1` (stereo not drawn) [Example 104, N-(4-bromo-2-methoxyphenyl)-3-(2-isopropylphenyl)-5-oxopyrrolidine-3-carboxamide], 10 to 100 nM; with `CC(C)c1ccccc1C1(C(=O)Nc2ccc(Br)cc2OC(F)F)CNC(=O)C1` (stereo not drawn) [Example 105, N-(4-bromo-2-(difluoromethoxy)phenyl)-3-(2-isopropylphenyl)-5-oxopyrrolidine-3-carboxamide], 10 to 100 nM.

For `COc1nc(C)ccc1NC(=O)C1(c2ccccc2C(C)C)CNC(=O)C1` (stereo not drawn) [Example 106, 3-(2-isopropylphenyl)-N-(2-methoxy-6-methylpyridin-3-yl)-5-oxopyrrolidine-3-carboxamide], the IC50 under setting [1] lay within 100 to 1000 nM.

For `CC(C)c1ccccc1C1(C(=O)Nc2ccc(OC(F)F)nc2Cl)CNC(=O)C1` (stereo not drawn) [Example 107, N-(2-chloro-6-(difluoromethoxy)pyridin-3-yl)-3-(2-isopropylphenyl)-5-oxopyrrolidine-3-carboxamide], under setting [1], the concentration for half-maximal inhibition (IC50) was > 1000 nM.

As to `CC(C)c1ccccc1C1(C(=O)Nc2ccc(Cl)nc2OC(F)F)CNC(=O)C1` (stereo not drawn) [Example 108, N-(6-chloro-2-(difluoromethoxy)pyridin-3-yl)-3-(2-isopropylphenyl)-5-oxopyrrolidine-3-carboxamide], under setting [1], the IC50 was 10 to 100 nM. For `Cc1ccc(NC(=O)C2(c3ccccc3C(C)C)CNC(=O)C2)c(OC(F)F)c1` (stereo not drawn) [Example 109, N-(2-(difluoromethoxy)-4-methylphenyl)-3-(2-isopropylphenyl)-5-oxopyrrolidine-3-carboxamide], under setting [1], the half-maximal inhibitory concentration (IC50) lay within 10 to 100 nM. Consider `Cc1ccc(NC(=O)C2(c3ccccc3C(C)C)CC(=O)N(C)C2)c(OC(F)F)c1` (stereo not drawn) [Example 110, N-(2-(difluoromethoxy)-4-methylphenyl)-3-(2-isopropylphenyl)-1-methyl-5-oxopyrrolidine-3-carboxamide], for which the IC50 under setting [1] lay in the range of 10 to 100 nM. Regarding `COc1ccc(NC(=O)C2(c3ccccc3C(C)C)CC(CC#N)C2)c(OC(F)F)n1` (stereo not drawn) [Example 111, 3-(cyanomethyl)-N-(2-(difluoromethoxy)-6-methoxypyridin-3-yl)-1-(2-isopropylphenyl)cyclobutane-1-carboxamide], under setting [1], the IC50 lay in the range of 10 to 100 nM. In the case of `COc1ccc(NC(=O)C2(c3ccccc3C(C)C)CC(Cc3nnn[nH]3)C2)c(OC(F)F)n1` (stereo not drawn) [Example 113, 3-((1H-tetrazol-5-yl)methyl)-N-(2-(difluoromethoxy)-6-methoxypyridin-3-yl)-1-(2-isopropylphenyl)cyclobutane-1-carboxamide], under setting [1], the half-inhibitory concentration (IC50) was < 10 nM. As for `COc1cc(CF)ccc1NC(=O)C1(c2ccccc2C(C)C)CNC(=O)C1` (stereo not drawn) [Example 115, N-(4-(fluoromethyl)-2-methoxyphenyl)-3-(2-isopropylphenyl)-5-oxopyrrolidine-3-carboxamide], under setting [1], the IC50 lay in the range of 100 to 1000 nM. On to `COc1ccc(NC(=O)C2(c3ccccc3C(C)C)CCNC(=O)C2)c(OC(F)F)n1` (stereo not drawn) [Example 116, N-(2-(difluoromethoxy)-6-methoxypyridin-3-yl)-4-(2-isopropylphenyl)-2-oxopiperidine-4-carboxamide], for which the IC50 (LPA1 IC50, B103 cells stably expressing human LPA1) was in the range of 100 to 1000 nM.

`COc1ccc(NC(=O)[C@]2(c3ccccc3C(C)C)C[C@H](CC(N)=O)C2)c(OC(F)F)n1` [Example 117, cis-3-(2-amino-2-oxoethyl)-N-(2-(difluoromethoxy)-6-methoxypyridin-3-yl)-1-(2-isopropylphenyl)cyclobutane-1-carboxamide]: the concentration for half-maximal inhibition (IC50) under setting [1] fell in the range of 10 to 100 nM. As to `COc1ccc(NC(=O)[C@]2(c3ccccc3C(C)C)C[C@@H](CC(N)=O)C2)c(OC(F)F)n1` [Example 118, trans-3-(2-amino-2-oxoethyl)-N-(2-(difluoromethoxy)-6-methoxypyridin-3-yl)-1-(2-isopropylphenyl)cyclobutane-1-carboxamide], the IC50 under setting [1] was in the range of 10 to 100 nM. As to `COc1ccc(NC(=O)[C@]2(c3ccccc3C(C)C)C[C@H](Cc3nnn[nH]3)C2)c(OC(F)F)n1` [Example 119, cis-3-((1H-tetrazol-5-yl)methyl)-N-(2-(difluoromethoxy)-6-methoxypyridin-3-yl)-1-(2-isopropylphenyl)cyclobutane-1-carboxamide], the half-inhibitory concentration (IC50) under setting [1] was in the range of 10 to 100 nM.
